Results published in ChEMBL document CHEMBL1131458, “Design and synthesis of malonic acid-based inhibitors of human neutrophil collagenase (MMP8)” (J Med Chem, 1998).

These compounds were tested against Neutrophil collagenase (Homo sapiens, UniProt P22894) (assay: Inhibition of Matrix metalloprotease-8 (Human neutrophil collagenase, MMP-8)).
Neutrophil collagenase, sequence (P22894 whole entry): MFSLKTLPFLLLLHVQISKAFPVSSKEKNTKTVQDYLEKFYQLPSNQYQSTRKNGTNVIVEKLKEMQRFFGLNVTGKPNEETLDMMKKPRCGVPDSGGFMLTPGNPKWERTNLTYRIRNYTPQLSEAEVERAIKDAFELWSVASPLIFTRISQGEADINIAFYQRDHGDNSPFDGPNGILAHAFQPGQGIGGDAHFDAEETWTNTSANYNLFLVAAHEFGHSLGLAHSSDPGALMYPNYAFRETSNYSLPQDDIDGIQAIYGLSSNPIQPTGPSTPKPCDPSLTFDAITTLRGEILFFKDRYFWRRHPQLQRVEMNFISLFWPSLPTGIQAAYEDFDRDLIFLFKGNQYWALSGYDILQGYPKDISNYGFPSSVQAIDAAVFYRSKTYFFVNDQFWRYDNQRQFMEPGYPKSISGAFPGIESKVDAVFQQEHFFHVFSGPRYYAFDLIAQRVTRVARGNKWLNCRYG

Ki [µM] | Structure (SMILES)
25 | CC(C)CC(C(=O)NO)C(=O)NC(Cc1ccccc1)C(=O)NCc1ccccc1 (stereo not given)
121 | CC(C)C[C@H](C(=O)NO)C(=O)N[C@@H](C)C(=O)NCC(N)=O
194 | CC(C)CC(C(=O)NO)C(=O)N[C@H](C)C(=O)NCc1ccccc1 (stereo not given in full)
1.7 | Cc1ccc(CCNC(=O)[C@H](CCc2ccccc2)NC(=O)C(Cc2ccccc2)C(=O)NO)cc1 (stereo not given in full)
55 | CC(C)CC(C(=O)NO)C(=O)NC(CC(N)=O)C(=O)NCc1ccccc1 (stereo not given)
168 | CC(C)CC(C(=O)NO)C(=O)N1CCCC1C(=O)NCc1ccccc1 (stereo not given)
1.6 | Cc1ccc(CCNC(=O)[C@H](CCc2ccccc2)NC(=O)C(O)C(=O)NO)cc1 (stereo not given in full)
12 | CC(C)CC(C(=O)NO)C(=O)N[C@@H](CCc1ccccc1)C(=O)NCCc1ccc(O)cc1 (stereo not given in full)
136 | CC(C)CC(C(=O)NO)C(=O)NC(CC(=O)O)C(=O)NCc1ccccc1 (stereo in doubt; 12)
50 | CC(C)CC(C(=O)NO)C(=O)NC(C)C(=O)NCc1ccccc1 (stereo not given)
35 | CC(C)CC(C(=O)NO)C(=O)NC(CO)C(=O)NCc1ccccc1 (stereo not given)
1.4 | Cc1ccc(CCNC(=O)[C@H](CCc2ccccc2)NC(=O)C(CC(C)C)C(=O)NO)cc1 (stereo not given in full)
9.6 | COC(=O)c1ccc(CCNC(=O)[C@H](CCc2ccccc2)NC(=O)C(CC(C)C)C(=O)NO)cc1 (stereo not given in full)
4 | Cc1ccc(CCNC(=O)[C@H](CCc2ccccc2)NC(=O)C(CCc2ccccc2)C(=O)NO)cc1 (stereo not given in full)
20 | CC(C)CC(C(=O)NO)C(=O)N[C@@H](CCc1ccccc1)C(=O)NCCc1ccc(C(=O)O)cc1 (stereo not given in full)
26 | CC(C)CC(C(=O)NO)C(=O)NC(CC(N)=O)C(=O)NCc1cccc(N)c1 (stereo not given)
190 | CCOC(=O)C(CC(C)C)C(=O)NO (stereo not given)
88 | CC(C)CC(C(=O)NO)C(=O)NC(CC(=O)O)C(=O)NCc1ccccc1 (stereo in doubt; 12b)
36 | CC(C)CC(C(=O)NO)C(=O)Nc1ccccc1C(=O)NCc1ccccc1 (stereo not given)

Structure (SMILES) | Ki [µM]
O=C(NO)C(Cc1ccccc1)C(=O)NCc1ccccc1 (stereo not given) | 3.1
CCOC(=O)C(C(=O)NO)c1ccccc1 (stereo not given) | 98
O=C(NO)C(Cc1ccccc1)C(=O)N1CCOCC1 (stereo not given) | 50
CCOC(=O)C(Cc1ccccc1)C(=O)NO (stereo not given) | 53
CCCCCCCCNC(=O)C(CC(C)C)C(=O)NO (stereo not given) | 0.24
O=C(NO)C(Cc1ccccc1)C(=O)NCCCc1ccccc1 (stereo not given) | 0.56
CCOC(=O)C(CCc1ccccc1)C(=O)NO (stereo not given) | 189
O=C(NO)C(CCc1ccccc1)C(=O)NCCCc1ccccc1 (stereo not given) | 0.49
CC(C)CC(C(=O)NO)C(=O)NCCCc1ccccc1 (stereo not given) | 0.54
O=C(NO)C(O)C(=O)NCCCc1ccccc1 (stereo not given) | 2.3
O=C(NO)C(CCc1ccccc1)C(=O)NCc1ccccc1 (stereo not given) | 2.3
